Patent publication US8372838B2, “Compounds as bradykinin B1 antagonists” (Boehringer Ingelheim International GmbH, priority 2010, dated 2013)

Legend:
[1] = system: human hepatocytes; experiment: metabolic clearance in human hepatocytes; type: in vitro ADME; conditions: cryopreserved primary human hepatocytes, 5% human serum, 1 μM test compound, 6 h; well-stirred model, percentage of human hepatic blood flow
Description: The metabolic stability can be measured by determining the decomposition in human hepatocytes and using the rate of decomposition to calculate the clearance, which in turn is expressed as a percentage of the human hepatic blood flow (% Qh). […] Thus, in the interests of achieving a long duration of activity it is highly advantageous if the active substance has a high metabolic stability (low clearance).
Description of Method for Determining Metabolic Clearance in Human Hepatocytes
The metabolic breakdown of the test substance is determined in a hepatocyte suspension. Cryopreserved primary human hepatocytes are incubated in a suitable incubation medium (e.g. Dulbecco's modified eagle medium, DMEM) which contains 5% human serum. After 30 minutes' pre-incubation in the incubator (37° C., 10% carbon dioxide) 5 μL of the test compound (80 μM, prepared from a 2 mM stock solution in dimethylsulphoxide and diluted 1:25 with incubation medium) are added to 395 μL of hepatocyte suspension (cell density in the range from 0.25-1 million cells/mL, typically 1 million cells/mL; final concentration of the test compound 1 μM). The cells are incubated for 6 hours in an incubator with an orbital agitator. At times 0, 0.5, 1, 2, 4 and 6 h, 25 μL of the medium are removed in each case. The medium removed is mixed with an excess of acetonitrile and centrifuged for 5 minutes. The supernatant is removed, evaporated to dryness under nitrogen and taken up in a mixture of 25% methanol and 0.1% formic acid. The reduction in the concentration of the test substance in the incubation medium is determined by coupling liquid chromatography with electrospray mass spectrometry. The linear phase of the decrease in the concentration of the test substance in the medium is used for the calculation. The intrinsic clearance is calculated as follows: CL_INTRINSIC=dose/AUC=(C0/CD)/(AUD+clast/k)×1000/60. C0: initial concentration in the incubation [μM], CD: cell density of the vital cells [10e6cells/mL], AUD: area under the curve [μM×h], clast: concentration of the last data point [μM], k: increase in the regression lines for the reduction in the test substance [h−1]. The intrinsic in vitro clearance calculated is now converted into the intrinsic in vivo clearance: CL_INTRINSIC_INVIVO [ml/min/kg]=(CL_INTRINSIC [μL/min/10e6cells]×hepatocellularity [10e6 cells/g liver]×liver factor [g/kg body weight])/1000 and the estimated human clearance is calculated using the well-stirred model: CL [ml/min/kg]=CL_INTRINSIC_INVIVO [ml/min/kg]×hepatic blood flow [ml/min/kg]/(CL_INTRINSIC_INVIVO [ml/min/kg]+hepatic blood flow [ml/min/kg]). […]

[2] = target: T1, cynomolgus BK1-receptor (Macaca fascicularis, UniProt Q3BCU0); experiment: cynoBK1-receptor binding assay
T1 construct: expressed in transfected cells; host or cells: CHO cells
T1 sequence (Q3BCU0 1-352): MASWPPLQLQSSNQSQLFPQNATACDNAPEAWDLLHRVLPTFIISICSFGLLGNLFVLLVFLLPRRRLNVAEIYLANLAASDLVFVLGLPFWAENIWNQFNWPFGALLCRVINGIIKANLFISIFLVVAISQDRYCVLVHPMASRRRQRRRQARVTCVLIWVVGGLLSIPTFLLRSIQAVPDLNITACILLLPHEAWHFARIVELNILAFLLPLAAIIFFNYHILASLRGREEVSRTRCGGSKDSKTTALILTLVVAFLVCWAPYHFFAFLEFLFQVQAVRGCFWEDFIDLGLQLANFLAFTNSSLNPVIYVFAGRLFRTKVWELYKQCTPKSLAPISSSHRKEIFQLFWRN
Description: Description of the Method of Binding the CynoBK1-Receptor
CHO cells that express the cynomolgus BK1-receptor are cultivated in “HAM'S F-12 Medium”. The medium is removed from confluent cultures, the cells are washed with PBS buffer, scraped off or detached using Versene and isolated by centrifuging. Then the cells are homogenised in suspension, the homogenate is centrifuged and resuspended. After the protein content has been determined 200 μl of the homogenate (50 to 250 μg protein/assay) are incubated for 60-180 minutes at ambient temperature with 0.5 to 5.0 nM kallidine (DesArg10,Leu9), [3,4-Prolyl-3,43H(N)] and increasing concentrations of the test substance in a total volume of 250 μl. The incubation is stopped by rapid filtration through GF/B glass fibre filters that have been pre-treated with polyethyleneimine (0.3%). The radioactivity bound to the protein is measured with a TopCount NXT. The radioactivity bound in the presence of 1.0 μM kallidine (DesArg10) is defined as non-specific binding. The concentration binding curve may be analysed using computer-aided non-linear curve fitting to determine the corresponding Ki value for the test substance.
Test results of the cynoBK1-receptor binding assay: […]

[3] = CHO cell homogenate expressing cynomolgus BK1-receptor, radioligand kallidine (DesArg10,Leu9), [3,4-Prolyl-3,43H(N)]
[4] = cynoBK1-receptor binding, repeated beside clearance in the metabolic stability table

| SMILES | Clearance [1] [% Qh] | Ki [2, 3] [nM] | Ki [2, 4] [nM] |
| --- | --- | --- | --- |
| O=C(N[C@@]1(C(=O)NCc2ccc(Nc3ccc(Cl)cc3C(F)(F)F)cc2)CCOC1)c1cn[nH]c(=O)c1 [Example 4, (S)-6-oxo-1,6-dihydro-pyridazine-4-carboxylic acid-{3-[4-(4-chloro-2-trifluoromethyl-phenylamino)-benzylcarbamoyl]-tetrahydrofuran-3-yl}-amide] | – | 27 | – |
| O=C(N[C@@]1(C(=O)NCc2ccc(Nc3ccccc3C(F)(F)F)cc2)CCOC1)c1cn[nH]c(=O)c1 [Example 5, (S)-6-oxo-1,6-dihydro-pyridazine-4-carboxylic acid-{3-[4-(2-trifluoromethyl-phenylamino)-benzylcarbamoyl]-tetrahydrofuran-3-yl}-amide] | 22 | 11 | 11 |
| O=C(N[C@@]1(C(=O)NCc2ccc(Nc3ccc(F)cc3C(F)(F)F)cc2F)CCOC1)c1cn[nH]c(=O)c1 [Example 6, (S)-6-oxo-1,6-dihydro-pyridazine-4-carboxylic acid-{3-[2-fluoro-4-(4-fluoro-2-trifluoromethyl-phenylamino)-benzylcarbamoyl]-tetrahydrofuran-3-yl}-amide] | 6 | 3.2 | – |
| O=C(N[C@@]1(C(=O)NCc2ccc(Nc3ccc(Br)cc3C(F)(F)F)cc2)CCOC1)c1cn[nH]c(=O)c1 [Example 8, (S)-6-oxo-1,6-dihydro-pyridazine-4-carboxylic acid-{3-[4-(4-bromo-2-trifluoromethyl-phenylamino)-benzylcarbamoyl]-tetrahydrofuran-3-yl}-amide] | – | 37 | – |
| O=C(N[C@@]1(C(=O)NCc2ccc(Nc3ccccc3C(F)(F)F)cc2F)CCOC1)c1cn[nH]c(=O)c1 [Example 9, (S)-6-oxo-1,6-dihydro-pyridazine-4-carboxylic acid {3-[2-fluoro-4-(2-trifluoromethyl-phenylamino)-benzylcarbamoyl]-tetrahydro-furan-3-yl}-amide] | – | 6.6 | – |

Continued, values first:

| Clearance [1] [% Qh] | Ki [2, 3] [nM] | Ki [2, 4] [nM] | SMILES |
| --- | --- | --- | --- |
| 1 | 3.5 | 3.5 | O=C(NC1(C(=O)NCc2ccc(Nc3ccc(F)cc3C(F)(F)F)cn2)CC1)c1cn[nH]c(=O)c1 [Example 1, 6-oxo-5,6-dihydro-pyridazine-4-carboxylic acid-(1-{[5-(4-fluoro-2-trifluoromethyl-phenylamino)-pyridin-2-ylmethyl]-carbamoyl}-cyclopropyl)-amide] |
| – | 5.1 | – | O=C(NC1(C(=O)NCc2ccc(Nc3ccc(Cl)cc3C(F)(F)F)cn2)CC1)c1cn[nH]c(=O)c1 [Example 2, 6-oxo-1,6-dihydro-pyridazine-4-carboxylic acid-(1-{[5-(4-chloro-2-trifluoromethyl-phenylamino)-pyridin-2-ylmethyl]-carbamoyl}-cyclopropyl)-amide] |
| 7 | 12 | 12 | O=C(N[C@@]1(C(=O)NCc2ccc(Nc3ccc(F)cc3C(F)(F)F)cc2)CCOC1)c1cn[nH]c(=O)c1 [Example 3, (S)-6-oxo-1,6-dihydro-pyridazine-4-carboxylic acid-{3-[4-(4-fluoro-2-trifluoromethyl-phenylamino)-benzylcarbamoyl]-tetrahydrofuran-3-yl}-amide] |
| – | 30 | – | O=C(N[C@@]1(C(=O)NCc2ccc(Nc3ccc(Cl)cc3C(F)(F)F)cc2F)CCOC1)c1cn[nH]c(=O)c1 [Example 7, (S)-6-oxo-1,6-dihydro-pyridazine-4-carboxylic acid-{3-[4-(4-chloro-2-trifluoromethyl-phenylamino)-2-fluoro-benzylcarbamoyl]-tetrahydrofuran-3-yl}-amide] |
